# Results from patent US20190093170A1, “USE OF TRANSLATIONAL PROFILING TO IDENTIFY TARGET MOLECULES FOR THERAPEUTIC TREATMENT” (THE REGENTS OF THE UNIVERSITY OF CALIFORNIA, priority 2013, published 2019).
# Experiments:
# [1] = test system: YB1, MTA1, vimentin, and CD44; assay: Western blot and qPCR of invasion genes in PC3 cells; assay type: cell-based, human; details: starting at 6 hr of treatment
# Procedure: Western blot analysis was performed as previously described (Hsieh et al., Cancer Cell 17:249-261 (2010)) with antibodies specific to phospho-AKT^S473 (Cell Signaling), AKT (Cell Signaling), phospho-p70S6K^T389 (Cell Signaling), phospho-rpS6^S240/244 (Cell Signaling), rpS6 (Cell Signaling), phospho-4EBP1^T37/46 (Cell Signaling), 4EBP1 (Cell Signaling), 4EBP2 (Cell Signaling), YB1 (Cell Signaling), CD44 (Cell Signaling), LEF1 (Cell Signaling), PTEN (Cell Signaling), eEF2 (Cell Signaling), GAPDH (Cell Signaling), vimentin (BD Biosciences), eIF4E (BD Biosciences), Flag (Sigma), β-actin (Sigma), MTA1 (Santa Cruz Biotechnology), Twist (Santa Cruz Biotechnology), rpL28 (Santa Cruz Biotechnology), HA (Covance) and rictor (Bethyl Laboratory).
# RNA was isolated using the manufacturer's protocol for RNA extraction with TRIzol Reagent (Invitrogen) using the Pure Link RNA mini kit (Invitrogen). RNA was DNase-treated with Pure Link Dnase (Invitrogen). DNase-treated RNA was transcribed to cDNA with SuperScript III First-Strand Synthesis System for RT-PCR (Invitrogen), and 1 μl of cDNA was used to run a SYBR green detection qPCR assay (SYBR Green Supermix and MyiQ2, Biorad). Primers were used at 200 nM.
# [2] = test system: PC3 human prostate cancer cells; assay: Ribosome profiling: translational efficiency (ribosome footprint vs RNA-seq read density); assay type: cell-based; details: for PP242 TrlEff: 3-hour treatment with PP242 (2.5 μM) in PC3 cells;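 for all read-outs here: Per-gene footprint-to-mRNA density ratio averaged per codon over the coding sequence, scaled so the median gene equals 1.0 after excluding regulated genes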
# Procedure: Given the critical role for mTOR in prostate cancer, PC3 human prostate cancer cells, in which mTOR is constitutively hyperactivated, were used to delineate translationally controlled gene expression networks upon complete or partial mTOR inhibition. Ribosome profiling was optimized to assess quantitatively ribosome occupancy genome-wide in cancer cells.
# Cells were subsequently treated with cycloheximide (100 μg ml^−1; Sigma) and detergent lysis was performed in the dish. The lysate was treated with DNase and clarified, and a sample was taken for RNA-seq analysis. Lysates were subjected to ribosome footprinting by nuclease treatment. Ribosome-protected fragments were purified, and deep sequencing libraries were generated from these fragments, as well as from poly(A) mRNA purified from non-nuclease-treated lysates. These libraries were analyzed by sequencing on an Illumina GAII.
# Ribosome footprint and RNA-seq sequencing reads were aligned against a library of transcripts from the UCSC Known Genes database GRCh37/hg19. The first 25 nucleotides of each read were aligned using Bowtie and this initial alignment was then extended to encompass the full fragment-derived portion of the sequencing read while excluding the linker sequence. Read density profiles were then constructed for the canonical transcript of each gene, using only reads with 0 or 1 total mismatches between the read sequence and the reference sequence, comprised of the transcript fragment followed by the linker sequence. Footprint reads were assigned to an A site nucleotide at position +15 to +17 of the alignment, based on the total fragment length; mRNA reads were assigned to the first nucleotide of the alignment. The average read density per codon was then computed for the coding sequence of each transcript, excluding the first 15 and last 5 codons, which can display atypical ribosome accumulation.
# Average read density was used as a measure of mRNA abundance (RNA-seq reads) and of protein synthesis (ribosome profiling reads). For most analyses, genes were filtered to require at least 256 reads in the relevant RNA-seq samples. Translational efficiency was computed as the ratio of ribosome footprint read density to RNA-seq read density, scaled to normalize the translational efficiency of the median gene to 1.0 after excluding regulated genes (log 2 fold-change+1.5 after normalizing for the all-gene median). Changes in protein synthesis, mRNA abundance and translational efficiency were similarly computed as the ratio of read densities between different samples, normalized to give the median gene a ratio of 1.0. This normalization corrects for differences in the absolute number of sequencing reads obtained for different libraries.
structure (smiles),measurement,setting,value
CC(C)n1nc(-c2cc3cc(O)ccc3[nH]2)c2c(N)ncnc21 [PP242],"expression of YB1, MTA1, vimentin, and CD44 at the protein but not transcript level",[1],selective decrease
same,PP242 TrlEff,[2]; gene ACD,−1.02
same,TrlEff,[2]; gene ACTG1,−1.40
same,TrlEff,[2]; gene AGRN,−1.29
same,TrlEff,[2]; gene ALKBH7,−1.27
same,TrlEff,[2]; gene AP2A1,−1.32
same,TrlEff,[2]; gene ARD1A,−1.05
same,TrlEff,[2]; gene ATP5G2,−1.01
same,PP242 TrlEff,[2]; gene C17orf28,−0.20
same,TrlEff,[2]; gene C21orf66,−1.03
same,PP242 TrlEff,[2]; gene CCNA1,0.66
same,TrlEff,[2]; gene CCNI,−1.33
same,TrlEff,[2]; gene CD44,−1.29
same,TrlEff,[2]; gene CIRBP,−1.08
same,TrlEff,[2]; gene CLPTM1,−1.13
same,TrlEff,[2]; gene COL6A2,−1.29
same,TrlEff,[2]; gene CRTAP,−2.50
same,PP242 TrlEff,[2]; gene DDX51,−0.51
same,PP242 TrlEff,[2]; gene DGCR2,0.02
same,TrlEff,[2]; gene ECSIT,−1.06
same,PP242 TrlEff,[2]; gene EEF1A1,−3.53
same,TrlEff,[2]; gene EEF1A2,−1.94
same,TrlEff,[2]; gene EEF1D,−2.37
same,TrlEff,[2]; gene EEF1G,−2.26
same,TrlEff,[2]; gene EEF2,−3.60
same,TrlEff,[2]; gene EIF3H,−1.54
same,TrlEff,[2]; gene EIF3L,−1.47
same,TrlEff,[2]; gene EIF4B,−2.27
same,TrlEff,[2]; gene EVPL,−0.79
same,TrlEff,[2]; gene FAM83H,−1.11
same,TrlEff,[2]; gene FAM128B,−1.47
same,TrlEff,[2]; gene FASN,−1.42
same,TrlEff,[2]; gene GLTSCR2,−2.12
same,TrlEff,[2]; gene GNB2L1,−2.35
same,PP242 TrlEff,[2]; gene GTPBP3,−0.83
same,TrlEff,[2]; gene HNRNPA1,−2.12
same,TrlEff,[2]; gene HSPA8,−2.25
same,TrlEff,[2]; gene IMPDH2,−1.33
same,TrlEff,[2]; gene LAMA5,−0.94
same,TrlEff,[2]; gene LMF2,−1.36
same,PP242 TrlEff,[2]; gene MAPK6,−0.29
same,PP242 TrlEff,[2]; gene MAPKAPK2,0.92
same,TrlEff,[2]; gene MTA1,−1.09
same,TrlEff,[2]; gene NCLN,−0.76
same,PP242 TrlEff,[2]; gene NFATC21P,0.35
same,PP242 TrlEff,[2]; gene NR2F1,−0.09
same,TrlEff,[2]; gene PABPC1,−2.09
same,TrlEff,[2]; gene PABPC4,−1.98
same,TrlEff,[2]; gene PACS1,−1.09
same,TrlEff,[2]; gene PFDN5,−1.38
same,TrlEff,[2]; gene PGLS,−1.11
same,TrlEff,[2]; gene PGM1,−1.35
same,TrlEff,[2]; gene PNKP,−0.79
same,PP242 TrlEff,[2]; gene PRKD3,0.68
same,TrlEff,[2]; gene PTGES2,−0.65
same,TrlEff,[2]; gene RABGGTB,−1.46
same,PP242 TrlEff,[2]; gene RBPJ,−0.03
same,TrlEff,[2]; gene RPL3,−2.44
same,TrlEff,[2]; gene RPL4,−1.50
same,TrlEff,[2]; gene RPL7,−2.02
same,TrlEff,[2]; gene RPL7A,−2.30
same,TrlEff,[2]; gene RPL9,−1.59
same,TrlEff,[2]; gene RPL10,−2.46
same,TrlEff,[2]; gene RPL10A,−2.16
same,TrlEff,[2]; gene RPL11,−2.31
same,TrlEff,[2]; gene RPL12,−2.95
same,TrlEff,[2]; gene RPL13,−1.56
same,TrlEff,[2]; gene RPL13A,−3.10
same,TrlEff,[2]; gene RPL15,−1.20
same,TrlEff,[2]; gene RPL18A,−2.63
same,TrlEff,[2]; gene RPL19,−1.35
same,TrlEff,[2]; gene RPL21,−2.45
same,TrlEff,[2]; gene RPL22,−1.64
same,TrlEff,[2]; gene RPL24,−1.41
same,TrlEff,[2]; gene RPL26,−2.00
same,TrlEff,[2]; gene RPL27,−1.23
same,TrlEff,[2]; gene RPL27A,−2.53
same,TrlEff,[2]; gene RPL28,−2.54
same,PP242 TrlEff,[2]; gene RPL28,−3.48
same,TrlEff,[2]; gene RPL31,−2.10
same,TrlEff,[2]; gene RPL32,−2.33
same,TrlEff,[2]; gene RPL34,−2.63
same,TrlEff,[2]; gene RPL36A,−1.98
same,TrlEff,[2]; gene RPL37A,−2.38
same,TrlEff,[2]; gene RPL39,−2.41
same,PP242 TrlEff,[2]; gene RPL39,−2.53
same,TrlEff,[2]; gene RPL41,−1.28
same,TrlEff,[2]; gene RPLP0,−1.61
same,TrlEff,[2]; gene RPLP1,−2.06
same,TrlEff,[2]; gene RPLP2,−2.10
same,TrlEff,[2]; gene RPS2,−2.25
same,TrlEff,[2]; gene RPS3,−2.16
same,TrlEff,[2]; gene RPS3A,−2.17
same,TrlEff,[2]; gene RPS4X,−2.06
same,TrlEff,[2]; gene RPS5,−2.25
same,TrlEff,[2]; gene RPS7,−1151
same,TrlEff,[2]; gene RPS9,−2.27
same,TrlEff,[2]; gene RPS12,−3.00
same,TrlEff,[2]; gene RPS13,−1.54
same,TrlEff,[2]; gene RPS14,−1.50
same,TrlEff,[2]; gene RPS15,−1.19
same,TrlEff,[2]; gene RPS15A,−2.31
same,TrlEff,[2]; gene RPS19,−2.34
same,TrlEff,[2]; gene RPS20,−2.46
same,PP242 TrlEff,[2]; gene RPS20,−2.78
same,TrlEff,[2]; gene RPS21,−2.09
same,TrlEff,[2]; gene RPS25,−2.13
same,TrlEff,[2]; gene RPS27,−2.71
same,PP242 TrlEff,[2]; gene RPS27,−3.35
same,TrlEff,[2]; gene RPS27A,−1.61
same,TrlEff,[2]; gene RPS28,−2.67
same,PP242 TrlEff,[2]; gene SDCCAG10,0.23
same,TrlEff,[2]; gene SLC19A1,−1.07
same,TrlEff,[2]; gene TKT,−1.58
same,TrlEff,[2]; gene TPT1,−1.94
same,TrlEff,[2]; gene TSC2,−1.09
same,TrlEff,[2]; gene UBA52,−1.62
same,PP242 TrlEff,[2]; gene UBTD2,0.27
same,PP242 TrlEff,[2]; gene UCHL5,0.40
same,PP242 TrlEff,[2]; gene VHL,0.52
same,TrlEff,[2]; gene VIM,−2.38
same,TrlEff,[2]; gene YB1,−2.30
